Key:
[1] = test system: Y397 phosphorylation of FAK; assay: Western blotting with Y397 FAK antibody, BT474 cells; format: cell-based; details: 100 μM
Description: (§1) Cell Viability Assay—The Cells were treated with peptides for 24 hours at different peptide concentrations. The 3-(4,5-dimethylthiazol-2-yl)-5-(3-carboxymethoxyphenyl)-2-(4-sulfophenyl)-2H-tetrazolium compound from Promega Viability kit (Madison, Ill.) was added, and the cells were incubated at 37° C. for 1-2 hours. The optical density on 96-plate was analyzed with a microplate reader at 490 nm to determine cell viability. In addition, cells were stained with trypan blue after 24 hours of treatment with Y15 and the percent of cells that stained positive were determined with a hemacytometer. Cell adhesion assay—The poly-L-Lysine or Collagen (5 μg/ml) coated 96-well plates were blocked with the blocking buffer (medium with 0.5% BSA) for 1 hour at 37 C. The cells were pre-treated with drugs for 3 hours and plated for adhesion at 4×10^5 cells. Cells were incubated at 37 C for 1 hour, fixed in 3.7% formaldehyde, washed in 0.1% BSA in PBS and stained with crystal violet (5 mg/ml in 2% ethanol) for 10 minutes. Then 2% SDS was added to the dried plated and OD at 590 nm was measured for detecting cell adhesion. Western Blotting—Cells or homogenized tumor samples were washed twice with cold 1×PBS and lysed on ice for 30 minutes in a buffer containing: 50 mM Tris-HCl (pH 7.5), 150 mM NaCl, 1% Triton-X, 0.5% NaDOC, 0.1% SDS, 5 mM EDTA, 50 mM NaF, 1 mM NaVO3, 10% glycerol and protease inhibitors: 10 μg/ml leupeptin, 10 μg/ml PMSF and 1 μg/ml aprotinin. The lysates were cleared by centrifugation at 10,000 rpm for 30 minutes at 4° C. Protein concentrations were determined using a Bio-Rad Kit. The boiled samples were loaded on Ready SDS-10% PAGE gels (Bio Rad, Inc) and used for Western blot analysis with the protein-specific antibody. Immunoblots were developed with chemiluminescence Renaissance reagent (NEN Life Science Products, Inc). Immunoprecipitation. Immunoprecipitation was performed according to the standard protocol. In brief, the pre-cleared lysates with equal amount of protein were incubated with 1 μg of primary antibody and 30 μl A/G agarose beads overnight at 4° C. The precipitates were washed with lysis buffer three times and re-suspended in 2× Laemmli buffer. The boiled samples were used for Western blotting, as described above. Detachment Assay—Cells were plated with and without inhibitors for 24 hours, and detached and attached cells were counted in a hemocytometer. We calculated the percent of detachment by dividing the number of detached cells by the total number of cells. The percent of detached cells was calculated in three independent experiments. Apoptosis Assay. Detached cells were collected and fixed in 3.7% formaldehyde in 1×PBS solution for the apoptosis assay. Detection of apoptosis was done with Hoechst 33342 staining. The percent of apoptotic cells was calculated as a ratio of apoptotic detached cells divided by the total number of cells in three independent experiments in several fields with the fluorescent microscope. For each experiment 300 cells per treatment were counted. In vitro Kinase Assay—10 μCi of [γ-^32P]-ATP in a kinase buffer (20 mM HEPES, pH 7.4, 5 mM MgCl2, 5 mM MnCl2, 0.1 mM Na3VO4 with 0.1 μg of purified FAK protein were incubated in a kinase buffer with 10 μCi of [γ-^32P]-ATP. The kinase reaction was performed for 5 minutes at room temperature and stopped by addition of 2× Laemmli buffer. Proteins were separated on a Ready SDS-10% PAGE gel, and the phosphorylated enolase was visualized by autoradiography. KinaseProfiler screening—Kinase specificity screening was performed with KinaseProfiler™ Service (Millipore) available on http://www.millipore.com/drugdiscovery/dd3/KinaseProfiler. The screening was performed with 1 μM Y15, 10 μM ATP and kinase substrates on 9 recombinant kinases according to Millipore protocol. Tumor Growth in Nude Mice—Female nude mice, 6 weeks old, were purchased from Harlan Laboratory. […]

FAK = molecular target: T1, FAK (Homo sapiens, UniProt Q05397); assay: In vitro kinase assay with purified recombinant FAK; format: biochemical; details: positive control
T1 construct: made in house; host or cells: Baculovirus system
Description: (§2) Cell Viability Assay—The Cells were treated with peptides for 24 hours at different peptide concentrations. The 3-(4,5-dimethylthiazol-2-yl)-5-(3-carboxymethoxyphenyl)-2-(4-sulfophenyl)-2H-tetrazolium compound from Promega Viability kit (Madison, Ill.) was added, and the cells were incubated at 37° C. for 1-2 hours. The optical density on 96-plate was analyzed with a microplate reader at 490 nm to determine cell viability. In addition, cells were stained with trypan blue after 24 hours of treatment with Y15 and the percent of cells that stained positive were determined with a hemacytometer. […] Then 2% SDS was added to the dried plated and OD at 590 nm was measured for detecting cell adhesion. […] Protein concentrations were determined using a Bio-Rad Kit. The boiled samples were loaded on Ready SDS-10% PAGE gels (Bio Rad, Inc) and used for Western blot analysis with the protein-specific antibody. […] Detachment Assay—Cells were plated with and without inhibitors for 24 hours, and detached and attached cells were counted in a hemocytometer. We calculated the percent of detachment by dividing the number of detached cells by the total number of cells. The percent of detached cells was calculated in three independent experiments. […] For each experiment 300 cells per treatment were counted. […]

BT474 cells [2] = assay: Detachment assay, BT474; format: cell-based; details: 24 hours
Description: as §1, with “Detached cells were collected and fixed in 3.7% formaldehyde in 1×PBS solution for the apoptosis assay. Detection of apoptosis was done with Hoechst 33342 staining.” left out, “http://www.millipore.com/drugdiscovery/dd3/KinaseProfiler.” for “http://www.millipore.com/drugdiscovery/dd3/KinaseProfiler. The screening was performed with 1 μM Y15, 10 μM ATP and kinase substrates on 9 recombinant kinases according to Millipore protocol. Tumor Growth in Nude Mice—Female nude mice, 6 weeks old, were purchased from Harlan Laboratory.”

BT474 cells [3] = assay: Apoptosis assay (Hoechst staining), BT474; format: cell-based
Description: as §1, with “Western Blotting—Cells or homogenized tumor samples were washed twice with cold 1×PBS and lysed on ice for 30 minutes in a buffer containing: 50 mM Tris-HCl (pH 7.5), 150 mM NaCl, 1% Triton-X, 0.5% NaDOC, 0.1% SDS, 5 mM EDTA, 50 mM NaF, 1 mM NaVO3, 10% glycerol and protease inhibitors: 10 μg/ml leupeptin, 10 μg/ml PMSF and 1 μg/ml aprotinin. The lysates were cleared by centrifugation at 10,000 rpm for 30 minutes at 4° C.” left out, “Immunoblots were developed with chemiluminescence Renaissance reagent (NEN Life Science Products, Inc). Immunoprecipitation. Immunoprecipitation was performed according to the standard protocol. In brief, the pre-cleared lysates with equal amount of protein were incubated with 1 μg of primary antibody and 30 μl A/G agarose beads overnight at 4° C. The precipitates were washed with lysis buffer three times and re-suspended in 2× Laemmli buffer. The boiled samples were used for Western blotting, as described above.” left out, “Apoptosis Assay. Detached cells were collected and fixed in 3.7% formaldehyde in 1×PBS solution for the apoptosis assay. Detection of apoptosis was done with Hoechst 33342 staining.” left out, “http://www.millipore.com/drugdiscovery/dd3/KinaseProfiler.” for “http://www.millipore.com/drugdiscovery/dd3/KinaseProfiler. The screening was performed with 1 μM Y15, 10 μM ATP and kinase substrates on 9 recombinant kinases according to Millipore protocol. Tumor Growth in Nude Mice—Female nude mice, 6 weeks old, were purchased from Harlan Laboratory.”

Panc-1 cells = assay: Apoptosis assay (Hoechst staining), Panc-1; format: cell-based, human; details: 48 hours
Description: Cell Viability Assay—The Cells were treated with peptides for 24 hours at different peptide concentrations. The 3-(4,5-dimethylthiazol-2-yl)-5-(3-carboxymethoxyphenyl)-2-(4-sulfophenyl)-2H-tetrazolium compound from Promega Viability kit (Madison, Ill.) was added, and the cells were incubated at 37° C. for 1-2 hours. The optical density on 96-plate was analyzed with a microplate reader at 490 nm to determine cell viability. In addition, cells were stained with trypan blue after 24 hours of treatment with Y15 and the percent of cells that stained positive were determined with a hemacytometer. Cell adhesion assay—The poly-L-Lysine or Collagen (5 μg/ml) coated 96-well plates were blocked with the blocking buffer (medium with 0.5% BSA) for 1 hour at 37 C. The cells were pre-treated with drugs for 3 hours and plated for adhesion at 4×10^5 cells. Cells were incubated at 37 C for 1 hour, fixed in 3.7% formaldehyde, washed in 0.1% BSA in PBS and stained with crystal violet (5 mg/ml in 2% ethanol) for 10 minutes. Then 2% SDS was added to the dried plated and OD at 590 nm was measured for detecting cell adhesion. […] Protein concentrations were determined using a Bio-Rad Kit. The boiled samples were loaded on Ready SDS-10% PAGE gels (Bio Rad, Inc) and used for Western blot analysis with the protein-specific antibody. […] Detachment Assay—Cells were plated with and without inhibitors for 24 hours, and detached and attached cells were counted in a hemocytometer. We calculated the percent of detachment by dividing the number of detached cells by the total number of cells. The percent of detached cells was calculated in three independent experiments. […] The percent of apoptotic cells was calculated as a ratio of apoptotic detached cells divided by the total number of cells in three independent experiments in several fields with the fluorescent microscope. For each experiment 300 cells per treatment were counted. […]

glioma and ovarian tumor = details: cited from earlier work
IGFR kinase = IGFR kinase (Homo sapiens, UniProt P08069); details: cited from earlier work
Y397-FAK phosphorylation = details: cited from earlier work
Panc-1 tumor cells = assay: Panc-1 subcutaneous tumor growth in nude mice; format: in vivo; details: 30 mg/kg each, daily intraperitoneal
Description: as §2

caspase-3 = assay: Caspase-3 immunohistochemistry of Panc-1 tumors; format: in vivo, mice; details: 30 mg/kg, no significant increase
Description: as §2

cell growth and survival = details: cited from earlier work

Sequence of IGFR kinase (P08069 31-1367): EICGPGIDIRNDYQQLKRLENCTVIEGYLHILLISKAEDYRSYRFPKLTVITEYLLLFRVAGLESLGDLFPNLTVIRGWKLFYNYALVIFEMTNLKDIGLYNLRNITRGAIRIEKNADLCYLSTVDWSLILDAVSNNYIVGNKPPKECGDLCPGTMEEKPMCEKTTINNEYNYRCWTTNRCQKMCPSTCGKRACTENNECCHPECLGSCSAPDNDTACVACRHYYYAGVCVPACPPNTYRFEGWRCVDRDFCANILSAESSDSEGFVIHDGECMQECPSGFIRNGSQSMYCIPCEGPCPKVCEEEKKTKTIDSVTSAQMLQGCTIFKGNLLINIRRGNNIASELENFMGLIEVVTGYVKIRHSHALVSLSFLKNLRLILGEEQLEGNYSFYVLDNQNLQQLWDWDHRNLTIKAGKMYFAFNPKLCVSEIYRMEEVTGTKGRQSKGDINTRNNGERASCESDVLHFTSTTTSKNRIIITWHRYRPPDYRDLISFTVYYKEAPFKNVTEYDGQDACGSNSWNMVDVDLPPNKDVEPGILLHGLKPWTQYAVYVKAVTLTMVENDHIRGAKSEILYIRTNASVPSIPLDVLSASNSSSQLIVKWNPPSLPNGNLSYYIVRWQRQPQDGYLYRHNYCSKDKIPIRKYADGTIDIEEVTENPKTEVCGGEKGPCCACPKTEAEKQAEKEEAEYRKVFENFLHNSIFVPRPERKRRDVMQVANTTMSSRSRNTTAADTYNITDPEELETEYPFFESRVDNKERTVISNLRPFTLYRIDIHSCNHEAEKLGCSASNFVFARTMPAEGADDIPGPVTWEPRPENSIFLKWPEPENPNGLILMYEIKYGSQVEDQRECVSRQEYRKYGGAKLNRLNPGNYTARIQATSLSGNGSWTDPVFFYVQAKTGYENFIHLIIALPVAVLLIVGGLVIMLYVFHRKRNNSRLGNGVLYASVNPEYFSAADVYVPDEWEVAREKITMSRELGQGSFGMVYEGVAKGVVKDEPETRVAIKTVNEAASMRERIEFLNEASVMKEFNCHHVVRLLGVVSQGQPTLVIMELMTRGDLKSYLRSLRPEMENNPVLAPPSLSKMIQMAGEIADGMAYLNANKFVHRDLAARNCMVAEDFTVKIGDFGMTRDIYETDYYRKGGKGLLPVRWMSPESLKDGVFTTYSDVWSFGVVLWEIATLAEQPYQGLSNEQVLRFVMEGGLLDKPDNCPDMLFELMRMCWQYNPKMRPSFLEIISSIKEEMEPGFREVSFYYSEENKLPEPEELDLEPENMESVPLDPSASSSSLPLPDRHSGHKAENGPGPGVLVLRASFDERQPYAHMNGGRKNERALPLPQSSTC
T1 sequence (Q05397 whole entry): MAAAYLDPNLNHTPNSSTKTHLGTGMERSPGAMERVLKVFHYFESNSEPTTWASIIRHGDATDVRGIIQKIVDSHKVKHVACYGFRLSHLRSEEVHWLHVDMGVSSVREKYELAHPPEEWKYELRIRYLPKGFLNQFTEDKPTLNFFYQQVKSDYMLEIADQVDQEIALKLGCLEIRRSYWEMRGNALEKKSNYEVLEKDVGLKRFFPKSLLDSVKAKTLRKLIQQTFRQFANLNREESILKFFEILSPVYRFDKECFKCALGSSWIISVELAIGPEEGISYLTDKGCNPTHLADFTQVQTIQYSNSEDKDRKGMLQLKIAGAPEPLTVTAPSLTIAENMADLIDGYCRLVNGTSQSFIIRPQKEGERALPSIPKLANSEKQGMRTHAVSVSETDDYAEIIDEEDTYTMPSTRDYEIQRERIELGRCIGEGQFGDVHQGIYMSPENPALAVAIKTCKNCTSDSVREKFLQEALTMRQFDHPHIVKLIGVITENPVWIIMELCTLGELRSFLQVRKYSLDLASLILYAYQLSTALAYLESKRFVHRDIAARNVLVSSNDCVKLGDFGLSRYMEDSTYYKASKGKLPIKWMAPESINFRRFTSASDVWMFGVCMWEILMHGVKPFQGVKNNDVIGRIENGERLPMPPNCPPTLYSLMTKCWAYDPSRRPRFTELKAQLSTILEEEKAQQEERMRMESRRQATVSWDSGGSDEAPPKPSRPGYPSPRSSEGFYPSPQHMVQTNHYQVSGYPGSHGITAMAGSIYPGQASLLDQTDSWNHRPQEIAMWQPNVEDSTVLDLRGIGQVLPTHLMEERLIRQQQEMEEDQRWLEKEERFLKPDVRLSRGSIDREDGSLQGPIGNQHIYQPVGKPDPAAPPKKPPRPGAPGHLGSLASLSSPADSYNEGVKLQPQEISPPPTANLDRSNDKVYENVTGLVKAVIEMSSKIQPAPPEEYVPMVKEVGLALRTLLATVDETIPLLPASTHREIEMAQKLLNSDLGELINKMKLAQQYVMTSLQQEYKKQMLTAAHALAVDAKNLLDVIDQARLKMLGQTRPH

Structure (SMILES)	total FAK level [1]	Y397 phosphorylation of FAK ([1]; 24 hours)	FAK autophosphorylation activity (FAK)	detachment (BT474 cells [2]; 10 μM) [%]	detachment (BT474 cells [2]; 50 μM) [%]	apoptosis (BT474 cells [3]; 10 μM) [%]	apoptosis (BT474 cells [3]; 20 μM) [%]	level of apoptosis compared to similar doses of Y15 (Panc-1 cells)	tumor growth in ovarian tumor model (glioma and ovarian tumor; 30 mg/kg, alone)	tumor growth in vivo (glioma and ovarian tumor)	IGFR kinase inhibition (IGFR kinase)	Y397-FAK phosphorylation (Y397-FAK phosphorylation)	tumor growth (Panc-1 tumor cells)	apoptotic cells in tumors (caspase-3 staining) (caspase-3) [%]	cell growth and survival in vitro (cell growth and survival)
CNC(=O)c1ccccc1Nc1nc(Nc2ccc(N3CCOCC3)cc2OC)ncc1Cl [TAE226, reference compound]	down-regulated total FAK	completely blocked Y397 phosphorylation	directly blocked autophosphorylation activity of FAK	30	> 80	35	69	slightly higher level of apoptosis	not so effective	inhibited glioma and ovarian tumor growth in vivo	inhibited IGFR kinase	effectively blocked Y397-FAK phosphorylation			
Nc1ccn([C@@H]2O[C@H](CO)[C@@H](O)C2(F)F)c(=O)n1 [gemcitabine, reference compound]													inhibited tumor growth	2	
CS(=O)(=O)c1cccc(CNc2nc(Nc3ccc4c(c3)CCC(=O)N4)ncc2C(F)(F)F)c1 [PF-573,228]												effectively blocked Y397-FAK phosphorylation			did not inhibit cell growth and survival in vitro
